Measurements published in PubChem BioAssay (NCI).
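Dose response: 5 concentrations. Exposure: 48 h. Format: 96-well plates. Endpoint: linear interpolation; highest concentration if not reached. At the TGI there is no net growth.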

How the values were obtained:
Assay in all cases: NCI tumour cell line growth inhibition, 48 h
786-0 renal = test system: 786-0 renal
A498 renal = test system: A498 renal
A549 NSCLC = test system: A549 NSCLC
ACHN renal = test system: ACHN renal
CAKI-1 renal = test system: CAKI-1 renal
CCRF-CEM leukemia = test system: CCRF-CEM leukemia
COLO 205 colon = test system: COLO 205 colon
DLD-1 colon = test system: DLD-1 colon
DMS 114 small cell lung = test system: DMS 114 small cell lung
DMS 273 small cell lung = test system: DMS 273 small cell lung
EKVX NSCLC = test system: EKVX NSCLC
HCC-2998 colon = test system: HCC-2998 colon
HCT-116 colon = test system: HCT-116 colon
HCT-15 colon = test system: HCT-15 colon
HOP-18 NSCLC = test system: HOP-18 NSCLC
HOP-92 NSCLC = test system: HOP-92 NSCLC
HT29 colon = test system: HT29 colon
IGROV1 ovarian = test system: IGROV1 ovarian
K-562 leukemia = test system: K-562 leukemia
KM12 colon = test system: KM12 colon
LXFL 529 NSCLC = test system: LXFL 529 NSCLC
M14 melanoma = test system: M14 melanoma
M19-MEL melanoma = test system: M19-MEL melanoma
MALME-3M melanoma = test system: MALME-3M melanoma
MOLT-4 leukemia = test system: MOLT-4 leukemia
NCI-H226 lung = test system: NCI-H226 lung
NCI-H23 lung = test system: NCI-H23 lung
NCI-H460 lung = test system: NCI-H460 lung
NCI-H522 lung = test system: NCI-H522 lung
OVCAR-3 ovarian = test system: OVCAR-3 ovarian
OVCAR-8 ovarian = test system: OVCAR-8 ovarian
RPMI-8226 leukemia = test system: RPMI-8226 leukemia
RXF 393 renal = test system: RXF 393 renal
SF-295 CNS = test system: SF-295 CNS
SK-MEL-28 melanoma = test system: SK-MEL-28 melanoma
SK-MEL-5 melanoma = test system: SK-MEL-5 melanoma
SK-OV-3 ovarian = test system: SK-OV-3 ovarian
SN12C renal = test system: SN12C renal
SNB-75 CNS = test system: SNB-75 CNS
SNB-78 CNS = test system: SNB-78 CNS
SW-620 colon = test system: SW-620 colon
TK-10 renal = test system: TK-10 renal
U251 CNS = test system: U251 CNS
UACC-257 melanoma = test system: UACC-257 melanoma
UACC-62 melanoma = test system: UACC-62 melanoma
UO-31 renal = test system: UO-31 renal
HL-60(TB) leukemia = test system: HL-60(TB) leukemia
LOX IMVI melanoma = test system: LOX IMVI melanoma
OVCAR-4 ovarian = test system: OVCAR-4 ovarian
OVCAR-5 ovarian = test system: OVCAR-5 ovarian
SF-268 CNS = test system: SF-268 CNS
SK-MEL-2 melanoma = test system: SK-MEL-2 melanoma
SNB-19 CNS = test system: SNB-19 CNS
SR leukemia = test system: SR leukemia
HOP-62 NSCLC = test system: HOP-62 NSCLC
KM20L2 colon = test system: KM20L2 colon
SF-539 CNS = test system: SF-539 CNS

Measured: TGI

CC1CC(=O)C2CC(CO)=CCCC2C1(C)CC/C(=C/CO)CO (stereo unspecified)
not listed: HL-60(TB) leukemia | LOX IMVI melanoma | OVCAR-4 ovarian | OVCAR-5 ovarian | SF-268 CNS | SK-MEL-2 melanoma | SNB-19 CNS | SR leukemia | HOP-62 NSCLC | KM20L2 colon | SF-539 CNS
> 100 µM: all other assays above

NC1C(O)C(O)C(CO)OC1n1cc(F)c(=O)[nH]c1=O (stereo unspecified)
not listed: 786-0 renal | A498 renal | EKVX NSCLC | IGROV1 ovarian | K-562 leukemia | M14 melanoma | M19-MEL melanoma | OVCAR-3 ovarian | OVCAR-8 ovarian | UACC-62 melanoma | UO-31 renal | HOP-62 NSCLC | KM20L2 colon | SF-539 CNS
> 100 µM: all other assays above

O=C(OCCOC(=O)c1ccc2c(c1)C1(SCCS1)c1ccccc1-2)c1ccc2c(c1)C1(SCCS1)c1ccccc1-2
not listed: 786-0 renal | DMS 273 small cell lung | HOP-92 NSCLC | RXF 393 renal | TK-10 renal
> 100 µM: all other assays above
